From patent publication US20210244721A1, “SMALL MOLECULE ENTEROVIRUS INHIBITORS AND USES THEREOF” (priority 2020, published 2021)

How the values were obtained:
RD cells = test: Cytotoxicity, neutral red method, RD cells; settings: RD cells
[1] = system: EV-D68 US/KY/14-18953 virus; test: CPE assay, EV-D68 US/KY/14-18953 in RD cells; type: cell-based, Enterovirus D68 (EV-D68); settings: EV-D68 US/KY/14-18953, RD cells; for EC50: Enterovirus D, EVD68, RD, CPE assay, read-out: EC50
[2] = Cytotoxicity, neutral red method, RD cells; settings: human, RD (rhabdomyosarcoma) cells

| SMILES | CC50 (RD cells; neutral red method) | SI = selectivity index (CC50/EC50) [1] | CC50 at 3 days [2] | EC50 [1] | CC50 (RD cells; Table 6) |
| --- | --- | --- | --- | --- | --- |
| CCN(CC)CCNC(=O)c1cc(OC)nc2ccccc12 [Compound 5a, N-[2-(diethylamino)ethyl]-2-methoxyquinoline-4-carboxamide] | > 250 µM | >4.8 |  |  |  |
| CN(C)CCOC(=O)c1cc(-c2ccccc2)nc2ccccc12 [Compound 6ab, 2-(dimethylamino)ethyl 2-phenylquinoline-4-carboxylate] |  |  | 78.9 µM | > 50 µM |  |
| CNCCCNC(=O)c1cc(-c2ccccc2)nc2ccccc12 [Compound 6ac, N-[3-(methylamino)propyl]-2-phenylquinoline-4-carboxamide] |  | SI50 = 10.5 | 93.6 µM | 8.9 µM |  |
| NCCCNC(=O)c1cc(-c2ccccc2)nc2ccccc12 [Compound 6ad, N-(3-aminopropyl)-2-phenylquinoline-4-carboxamide] |  | SI50 = 23.4 | 168 µM | 7.2 µM |  |
| O=C(NCC1CNC1)c1cc(-c2ccccc2)nc2ccccc12 [Compound 6ag, N-[(azetidin-3-yl)methyl]-2-phenylquinoline-4-carboxamide] |  |  | 43.2 µM | 5.8 µM |  |
| O=C(NCC1(O)CNC1)c1cc(-c2ccccc2)nc2ccccc12 [Compound 6ah, N-[(3-hydroxyazetidin-3-yl)methyl]-2-phenylquinoline-4-carboxamide] |  |  | 82.2 µM | 5.1 µM |  |
| O=C(NCCC1CCCN1)c1cc(-c2ccccc2)nc2ccccc12 (centres unmarked) [Compound 6ai, 2-phenyl-N-[2-(pyrrolidin-2-yl)ethyl]quinoline-4-carboxamide] |  |  | 19.1 µM | 6 µM |  |
| O=C(NC1CNC1)c1cc(-c2ccccc2)nc2ccccc12 [Compound 6aj, N-(azetidin-3-yl)-2-phenylquinoline-4-carboxamide] |  |  | 36.6 µM | 4.2 µM |  |
| CN1CC(NC(=O)c2cc(-c3ccccc3)nc3ccccc23)C1 [Compound 6ak, N-(1-methylazetidin-3-yl)-2-phenylquinoline-4-carboxamide] |  |  | 46.8 µM | 2.9 µM |  |
| CC1(CNC(=O)c2cc(-c3ccccc3)nc3ccccc23)CNC1 [Compound 6al, N-[(3-methylazetidin-3-yl)methyl]-2-phenylquinoline-4-carboxamide] |  |  | 49.5 µM | 6.9 µM |  |
| O=C(NCC1CCCNC1)c1cc(-c2ccccc2)nc2ccccc12 (centres unmarked) [Compound 6am] |  | SI50 = 4.2 | 30.1 µM | 7.1 µM |  |
| NCCNC(=O)c1cc(-c2ccccc2)nc2ccccc12 [Compound 6an, N-(2-aminoethyl)-2-phenylquinoline-4-carboxamide] |  | SI50 = 37.4 | 44.9 µM | 1.2 µM |  |
| N=C(N)NCCNC(=O)c1cc(-c2ccccc2)nc2ccccc12 [Compound 6ao, N-(2-carbamimidamidoethyl)-2-phenylquinoline-4-carboxamide] |  | SI50 >60.6 | > 200 µM | 3.3 µM |  |
| CC(CN)NC(=O)c1cc(-c2ccccc2)nc2ccccc12 (centres unmarked) [Compound 6ap, N-(1-aminopropan-2-yl)-2-phenylquinoline-4-carboxamide] |  | SI50 = 74.3 | 89.1 µM | 1.2 µM |  |
| [2H]c1c([2H])c([2H])c(-c2cc(C(=O)NCCNC)c3ccccc3n2)c([2H])c1[2H] [Compound 6as, N-[2-(methylamino)ethyl]-2 [(2,3,4,5,6-^2H5)phenyl]quinoline-4-carboxamide] |  | SI50 = 91.6 | 101 µM | 1.1 µM |  |
| [2H]c1c([2H])c([2H])c(-c2cc(C(=O)NCCN)c3ccccc3n2)c([2H])c1[2H] [Compound 6at, N-(2-aminoethyl)-2 [(2,3,4,5,6-^2H5)phenyl]quinoline-4-carboxamide] |  | SI50 = 45.6 | 100 µM | 2.2 µM |  |
| [2H]c1c([2H])c([2H])c(-c2cc(C(=O)NCC3CNC3)c3ccccc3n2)c([2H])c1[2H] [Compound 6au, N-[(azetidin-3-yl)methyl]-2 [(2,3,4,5,6-^2H5)phenyl]quinoline-4-carboxamide] |  | SI50 = 29.5 | 188 µM | 6.4 µM |  |
| O=C(NC1CNC1)c1cc(-c2ccc(F)cc2)nc2ccccc12 [Compound 6ay, N-(azetidin-3-yl)-2-(4-fluorophenyl)quinoline-4-carboxamide] |  | SI50 = 42.5 | 46.7 µM | 1.1 µM |  |
| O=C(NCC1CNC1)c1cc(-c2ccc(F)cc2)nc2ccccc12 [Compound 6az, N-[(azetidin-3-yl)methyl]-2-(4-fluorophenyl)quinoline-4-carboxamide] |  | SI50 = 42.2 | 50.6 µM | 1.2 µM |  |
| CN(C)CCNC(=O)c1cc(-c2c(F)cccc2F)nc2ccccc12 [Compound 6bb, 2-(2,6-difluorophenyl)-N-[2-(dimethylamino)ethyl]quinoline-4-carboxamide] |  | SI50 = 7.7 | 93 µM | 12.1 µM |  |

| SMILES | CC50 (RD cells; neutral red method) | SI = selectivity index (CC50/EC50) [1] | CC50 at 3 days [2] | EC50 [1] | CC50 (RD cells; Table 6) |
| --- | --- | --- | --- | --- | --- |
| CN(C)CCNC(=O)c1cc(-c2c(F)cc(F)cc2F)nc2ccccc12 [Compound 6bc, N-[2-(dimethylamino)ethyl]-2-(2,4,6-trifluorophenyl)quinoline-4-carboxamide] |  | SI50 = 10.9 | 39.2 µM | 3.6 µM |  |
| CN(C)CCNC(=O)c1cc(-c2cc(F)c(F)c(F)c2)nc2ccccc12 [Compound 6bd, N-[2-(dimethylamino)ethyl]-2-(3,4,5-trifluorophenyl)quinoline-4-carboxamide] |  |  | 38 µM | > 300 µM |  |
| CN(C)CCNC(=O)c1cc(-c2c(F)c(F)c(F)c(F)c2F)nc2ccccc12 [Compound 6be, N-[2-(dimethylamino)ethyl]-2-(2,3,4,5,6-pentafluorophenyl)quinoline-4-carboxamide] |  | SI50 = 13.7 | 148 µM | 10.8 µM |  |
| CN1CC(NC(=O)c2cc(-c3cccs3)nc3ccccc23)C1 [Compound 6bh, N-(1-methylazetidin-3-yl)-2-(thiophen-2-yl)quinoline-4-carboxamide] |  | SI50 = 42.6 | 42.6 µM | 1 µM |  |
| CC(CN)NC(=O)c1cc(-c2cccs2)nc2ccccc12 (centres unmarked) [Compound 6bm, N-(1-aminopropan-2-yl)-2-(thiophen-2-yl)quinoline-4-carboxamide] |  | SI50 = 47.6 | 23.8 µM | 0.5 µM |  |
| O=C(NCC1CNC1)c1cc(-c2cccs2)nc2ccccc12 [Compound 6bn, N-[(azetidin-3-yl)methyl]-2-(thiophen-2-yl)quinoline-4-carboxamide] |  | SI50 = 23.6 | 28.3 µM | 1.2 µM |  |
| NCCNC(=O)c1cc(-c2ccco2)nc2ccccc12 [Compound 6bp, N-(2-aminoethyl)-2-(furan-2-yl)quinoline-4-carboxamide] |  | SI50 = 33.4 | 147 µM | 4.4 µM |  |
| CC(C)Oc1cc(C(=O)NCCN2CCOCC2)c2ccccc2n1 [Compound 8d, N-[2-(morpholin-4-yl)ethyl]-2-(propan-2-yloxy)quinoline-4-carboxamide] | > 250 µM | >14.3 |  |  |  |
| NNC(=O)c1cc(-c2ccccc2)nc2ccccc12 [Compound 10d, 2-phenylquinoline-4-carbohydrazide] | > 300 µM | >3 |  |  |  |
| N=C(N)NC(=O)c1cc(-c2ccccc2)nc2ccccc12 [Compound 10e, N-carbamimidoyl-2-phenylquinoline-4-carboxamide] | > 250 µM | >7.2 |  |  |  |
| CN(C)c1ccc(NC(=O)c2cc(-c3ccccc3)nc3ccccc23)cc1 [Compound 10f, N-[4-(dimethylamino)phenyl]-2-phenylquinoline-4-carboxamide] | > 350 µM | >3.5 |  |  |  |
| O=C(NCCCn1ccnc1)c1cc(-c2cccs2)nc2ccccc12 [Compound 12d, N-[3-(1H-imidazol-1-yl)propyl]-2-(thiophen-2-yl)quinoline-4-carboxamide] | 55.7 ± 3.5 µM |  |  |  |  |
| NNC(=O)c1cc(-c2cccs2)nc2ccccc12 [Compound 12e, 2-(thiophen-2-yl)quinoline-4-carbohydrazide] | > 100 µM | >8.4 |  |  |  |
| CN(C)CCNC(=O)c1cc(-c2ccccc2)nc2ccc(Cl)cc12 [Compound 15a, 6-chloro-N-[2-(dimethylamino)ethyl]-2-phenylquinoline-4-carboxamide] |  |  |  |  | 14.3 ± 0.8 µM |
| CCN(CC)CCNC(=O)c1cc(-c2ccccc2)nc2ccc(Cl)cc12 [Compound 15b, 6-chloro-N-[2-(diethylamino)ethyl]-2-phenylquinoline-4-carboxamide] |  |  |  |  | 13.5 ± 8.1 µM |
| COc1ccc2nc(-c3ccccc3)cc(C(=O)NCCN(C)C)c2c1 [Compound 15c, N-[2-(dimethylamino)ethyl]-6-methoxy-2-phenylquinoline-4-carboxamide] |  |  |  |  | 31.8 ± 1.3 µM |
| CCN(CC)CCNC(=O)c1cc(-c2ccccc2)nc2ccc(OC)cc12 [Compound 15d, N-[2-(diethylamino)ethyl]-6-methoxy-2-phenylquinoline-4-carboxamide] |  |  |  |  | 27.5 ± 7.3 µM |
| CN(C)CCNC(=O)c1cc(-c2ccccc2)nc2ccc(F)cc12 [Compound 19a, N-[2-(dimethylamino)ethyl]-6-fluoro-2-phenylquinoline-4-carboxamide] |  |  |  |  | 38.8 ± 19 µM |
| CCN(CC)CCNC(=O)c1cc(-c2ccccc2)nc2ccc(F)cc12 [Compound 19b, N-[2-(diethylamino)ethyl]-6-fluoro-2-phenylquinoline-4-carboxamide] |  |  |  |  | 24.9 ± 1.5 µM |
